We go through ten compounds from patent US20260274832A1, “COMPOUNDS AND THEIR USE IN TREATING CANCER” (ASTRAZENECA AB, priority 2023, published 2026).

As a reminder, the DC50 is the concentration at which degradation of the target reaches its halfway point. What is called Dmax is the greatest extent of degradation seen.

Experiment [1] has as its target T1, AR (AR-full length) in LNCaP cells (Homo sapiens, UniProt P10275, T878A).
T1 construct: the prostate cancer cell line LNCaP (expressing AR-full length); endogenous in cells; host or cells: LNCaP
As to the kind of experiment: LNCaP Androgen Receptor Imaging Assay (immunofluorescence of endogenous nuclear AR). The class given is cell-based. Conditions: 24 h incubation; for DC50: concentration giving 50% of maximum degradation of AR per curve fit, single experiment or average of two or more; for LNCaP AR Degradation Dmax / Dmax: maximum degradation observed, normalized as % of positive control (prior art AR PROTAC at 3 μM); for Dmax: LNCaP. The procedure:
This cell-based imaging assay uses immuno-fluorescence to measure endogenous nuclear AR staining in the prostate cancer cell line LNCaP (expressing AR-full length). The purpose of the assay is to identify compounds that regulate AR protein level according to the protocol laid out in the steps below.
(§1) All work was performed in a sterile tissue culture hood up to the point of cell fixation. LNCaP cells were cultured at 6-8×10^6 per T175 flask and split every 3-4 days. Medium: RPMI (R7638, VWR Sigma) containing 10% FCS and 1% glutamine. Cells were plated in black wall transparent bottom plates at a density of 12,000 cells (Cedex™ Cell counter, Beckmann & Coulter), 40 μL per well, using a Multidrop (ThermoFisher).
(§2) Cells were dosed with test compound diluted in DMSO using an Echo 555/655™ (Labcyte) and the final concentration of DMSO in the well was 0.3%. A neutral control (DMSO) and a positive AR degrader control at 3 μM (a prior art AR PROTAC) were included. The Echo uses acoustic technology to perform direct microplate-to-microplate transfers of DMSO compound solutions to assay plates. The system can be programmed to transfer volumes as low as 2.5 nL in multiple increments between microplates and in so doing generates a serial dilution of compound in the assay plate which is then back-filled to normalise the DMSO concentration across the dilution range. Compounds were dispensed as a 12 point dose response with indicated concentrations. The plates were incubated at 37° C./5% CO2 for 24 h and then fixed and stained as below. 40 μL of 8% paraformaldehyde solution (v/v) in phosphate buffered saline (PBS) was added on top of the media already in the well using a Multidrop to fix plates giving a final concentration of 4% PFA (v/v) for 20-30 minutes (keep in fume hood to minimise PFA exposure). After 20-30 mins, the plates were washed with 3×PBS using a BioTek washer in a fume hood. A shake out of remaining volume in the well was performed to ensure best removal of remaining PBS. At this plates could be stored in PBS after washing for at least 3 days at 4° C., if so, PBS was removed by the BioTek before continuing with the next step.
(§3) The cells were incubated with a Mouse monoclonal Anti-AR antibody AR441 (DAKO M3562) (1:1000), diluted in modified blocking buffer (PBS+1% BSA+0.1% TritonX); 15 μL/well for 2 h at RT. The plates were then washed with 3×PBS using a BioTek washer. A shake out of remaining volume in the well was performed to ensure best removal of remaining PBS. Cells were then incubated with Goat anti-mouse secondary antibody 488 (Invitrogen A11001) (1:500) and nuclear stain, DRAQ5 (Abcam Ab108410) (1:2000) diluted in modified blocking buffer for 45 mins at room temperature 15 μL/well. Plates are then washed with 3×PBS using a BioTek washer, without final aspiration, and sealed with black plate seals. Plates could be stored after staining for three days at 4° C. before read if required.
(§4) Plates are read using a Cellomics Cellinsight to measure the Androgen Receptor level in each well. The data is exported into Genedata to perform curve fitting analysis. All data are normalized as % of positive control and the BellFit method automatically determines the correct fit method based on the presence of hook effect, choosing the BellFit when there is a hook and HillFit when there is no hook. Down-regulation of AR is expressed as a DC50 value and determined by calculation of the concentration of compound that is required to give 50% of maximum degradation of AR as per the curve fit for that compound. The maximum degradation observed for each compound is expressed as Dmax. The AR degradation data for compounds is shown in the table below and may be a result from a single experiment or an average of two or more experiments.

The target of experiment [2] is T2, AR (L702H) in LNCaP cells (Homo sapiens, UniProt P10275, L702H/T878A).
T2 construct: engineered to introduce the mutation L702H into the AR gene using CRISPR/Cas9; endogenous in cells; host or cells: LNCaP cells edited by CRISPR/Cas9 at the AR gene
Put plainly: LNCaP Androgen Receptor L702H Imaging Assay (LNCaP cells engineered by CRISPR/Cas9). The class given is cell-based. Conditions: LNCaP cells with AR L702H mutation, 24 h incubation; for DC50: concentration giving 50% of maximum degradation of AR (L702H) per curve fit; for LNCaP AR (L702H) Degradation Dmax / Dmax: maximum degradation observed, normalized as % of positive control; for Dmax: LNCaP. On the procedure:
as §1, §2, §3, §4
At this stage, anti-androgen therapy is largely ineffective due to AR amplification, overexpression or point mutation. One of the point mutations observed in patient populations is L702H in the AR Ligand Binding Domain. LNCAP cells have been engineered to introduce the mutation L702H into the AR gene using CRISPR/Cas9. The previously described imaging-based AR assay will monitor nuclear AR (L702H) levels in these cells to identify compounds that regulate AR (L702H). […]

T1 sequence (P10275 whole entry T878A): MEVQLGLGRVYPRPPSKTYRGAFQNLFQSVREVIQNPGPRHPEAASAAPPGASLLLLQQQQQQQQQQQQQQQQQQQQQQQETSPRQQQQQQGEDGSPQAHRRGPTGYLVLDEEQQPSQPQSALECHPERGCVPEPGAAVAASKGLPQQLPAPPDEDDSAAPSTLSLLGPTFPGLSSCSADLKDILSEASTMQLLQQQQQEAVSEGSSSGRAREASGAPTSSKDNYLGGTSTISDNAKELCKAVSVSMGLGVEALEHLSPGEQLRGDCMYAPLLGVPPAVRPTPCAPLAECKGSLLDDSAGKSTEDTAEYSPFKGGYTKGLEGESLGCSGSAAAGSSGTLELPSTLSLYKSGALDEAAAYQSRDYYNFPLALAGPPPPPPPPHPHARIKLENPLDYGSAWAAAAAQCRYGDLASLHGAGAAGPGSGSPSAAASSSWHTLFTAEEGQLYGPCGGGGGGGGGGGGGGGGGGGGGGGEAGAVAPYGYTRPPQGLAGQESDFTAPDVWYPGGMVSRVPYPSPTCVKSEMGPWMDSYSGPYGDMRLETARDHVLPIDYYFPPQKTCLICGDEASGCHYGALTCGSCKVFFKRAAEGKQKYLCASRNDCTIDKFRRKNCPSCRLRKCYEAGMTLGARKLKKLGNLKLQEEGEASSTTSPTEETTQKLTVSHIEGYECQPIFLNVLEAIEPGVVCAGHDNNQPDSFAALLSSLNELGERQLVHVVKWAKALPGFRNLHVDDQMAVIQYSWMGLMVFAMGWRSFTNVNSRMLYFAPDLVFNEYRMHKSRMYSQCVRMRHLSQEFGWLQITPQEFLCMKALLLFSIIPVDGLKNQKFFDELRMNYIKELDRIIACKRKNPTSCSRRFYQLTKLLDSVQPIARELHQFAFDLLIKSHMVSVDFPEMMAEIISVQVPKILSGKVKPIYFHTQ
T1 sequence (Q96SW2 whole entry partner): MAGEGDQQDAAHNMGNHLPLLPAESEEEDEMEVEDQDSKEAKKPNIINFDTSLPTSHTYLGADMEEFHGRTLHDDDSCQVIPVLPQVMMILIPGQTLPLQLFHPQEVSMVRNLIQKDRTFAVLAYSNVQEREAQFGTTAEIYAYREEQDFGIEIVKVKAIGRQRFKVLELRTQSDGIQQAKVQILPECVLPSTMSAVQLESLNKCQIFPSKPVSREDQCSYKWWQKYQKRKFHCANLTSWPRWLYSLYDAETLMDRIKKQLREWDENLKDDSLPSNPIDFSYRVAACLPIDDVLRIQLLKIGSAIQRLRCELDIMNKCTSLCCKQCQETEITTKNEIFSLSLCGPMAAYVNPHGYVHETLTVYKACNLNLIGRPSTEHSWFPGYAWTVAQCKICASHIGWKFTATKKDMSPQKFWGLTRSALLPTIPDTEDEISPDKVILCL
T2 sequence (P10275 whole entry L702H/T878A): as the sequence (P10275 whole entry T878A) above, with L702H counted along it
T2 sequence (Q96SW2 whole entry partner): as the sequence (Q96SW2 whole entry partner) above

On to `COc1nc(N2CCN(CC3CCN(c4ccc([C@@H]5CCCN(c6ccc(Cl)c7c(C#N)c[nH]c67)C5)cc4)CC3)CC2)cc2c1C(=O)N(C1CCC(=O)NC1=O)C2` (single isomer, unassigned) [Example 40, 4-Chloro-7-[(3S)-3-(4-{4-[(4-{2-[(3S*)-2,6-dioxopiperidin-3-yl]-4-methoxy-3-oxo-2,3-dihydro-1H-pyrrolo[3,4-c]pyridin-6-yl}piperazin-1-yl)methyl]piperidin-1-yl}phenyl)piperidin-1-yl]-1H-indole-3-carbonitrile], for which, in experiment [1], half-maximal degradation (DC50) was put at 0.007 µM and the “LNCaP AR Degradation Dmax” value was found to be 105%. For the same compound, in experiment [2], the DC50 is 0.012 µM and the “LNCaP AR (L702H) Degradation Dmax” value came to 106%.

In experiment [1], `N#Cc1c[nH]c2c(N3CCCC(c4ccc(N5CCC(CN6CCC(n7ccc8c(N9CCC(=O)NC9=O)cccc87)CC6)CC5)cn4)C3)ccc(Cl)c12` (single isomer, unassigned) [Example 65, 4-Chloro-7-[(3R*)-3-{5-[4-({4-[4-(2,4-dioxo-1,3-diazinan-1-yl)-1H-indol-1-yl]piperidin-1-yl}methyl)piperidin-1-yl]pyridin-2-yl}piperidin-1-yl]-1H-indole-3-carbonitrile] displayed a half-maximal degradation concentration (DC50) of 0.009 µM and a maximal degradation (Dmax) of 96%. In experiment [2], this compound returned a DC50 of 0.798 µM and a Dmax of 78%.

Regarding `N#Cc1c[nH]c2c(N3CCCC(c4ccc(N5CCC(CN6CCC(n7ccc8c(N9CCC(=O)NC9=O)cccc87)CC6)CC5)cn4)C3)ccc(Cl)c12` (single isomer, unassigned) [Example 66, 4-Chloro-7-[(3S*)-3-{5-[4-({4-[4-(2,4-dioxo-1,3-diazinan-1-yl)-1H-indol-1-yl]piperidin-1-yl}methyl)piperidin-1-yl]pyridin-2-yl}piperidin-1-yl]-1H-indole-3-carbonitrile], in experiment [1], it took 0.01 µM to reach half-maximal degradation (DC50) and the “LNCaP AR Degradation Dmax” value was determined as 97%. In experiment [2], half-maximal degradation (DC50) was put at 0.022 µM and the “LNCaP AR (L702H) Degradation Dmax” value was determined as 94%.

For the compound `Cc1ccc(C2CCCN(c3ccc(OCCCCN4CCN(c5ccc6c(c5)CN(C5CCC(=O)NC5=O)C6=O)CC4)cc3)C2)c2[nH]cc(C#N)c12` (single isomer, unassigned) [Example 78, 7-{(3R*)-1-[4-(4-{4-[2-(2,6-dioxopiperidin-3-yl)-1-oxo-2,3-dihydro-1H-isoindol-5-yl]piperazin-1-yl}butoxy)phenyl]piperidin-3-yl}-4-methyl-1H-indole-3-carbonitrile], in experiment [1], the DC50 stood at 1.37 µM and the “LNCaP AR Degradation Dmax” value is 70%. Besides, in experiment [2], it took 3.1 µM to reach half-maximal degradation (DC50) and the “LNCaP AR (L702H) Degradation Dmax” value worked out at 100%.

As to `Cc1ccc(C2CCCN(c3ccc(OCCCCN4CCN(c5ccc6c(c5)CN(C5CCC(=O)NC5=O)C6=O)CC4)cc3)C2)c2[nH]cc(C#N)c12` (single isomer, unassigned) [Example 79, 7-{(3S*)-1-[4-(4-{4-[2-(2,6-dioxopiperidin-3-yl)-1-oxo-2,3-dihydro-1H-isoindol-5-yl]piperazin-1-yl}butoxy)phenyl]piperidin-3-yl}-4-methyl-1H-indole-3-carbonitrile], in experiment [1], the DC50 worked out at 0.009 µM and the “LNCaP AR Degradation Dmax” value is recorded as 92%. Also, in experiment [2], the DC50 turned out to be 0.021 µM and the “LNCaP AR (L702H) Degradation Dmax” value amounted to 79%.

As for `Cc1ccc(C2CCCN(c3cccc(OCCCCN4CCN(c5ccc6c(c5)CN(C5CCC(=O)NC5=O)C6=O)CC4)c3)C2)c2[nH]cc(C#N)c12` (single isomer, unassigned) [Example 80, 7-{(3R*)-1-[3-(4-{4-[2-(2,6-dioxopiperidin-3-yl)-1-oxo-2,3-dihydro-1H-isoindol-5-yl]piperazin-1-yl}butoxy)phenyl]piperidin-3-yl}-4-methyl-1H-indole-3-carbonitrile], the DC50 in experiment [1] turned out to be 0.038 µM; in experiment [2] it was 3.1 µM. Further, the Dmax was 64% in experiment [1] and 100% in experiment [2].

As for `Cc1ccc(C2CCCN(c3cccc(OCCCCN4CCN(c5ccc6c(c5)CN(C5CCC(=O)NC5=O)C6=O)CC4)c3)C2)c2[nH]cc(C#N)c12` (single isomer, unassigned) [Example 81, 7-{(3S*)-1-[3-(4-{4-[2-(2,6-dioxopiperidin-3-yl)-1-oxo-2,3-dihydro-1H-isoindol-5-yl]piperazin-1-yl}butoxy)phenyl]piperidin-3-yl}-4-methyl-1H-indole-3-carbonitrile], the DC50 in experiment [1] was above 3 µM. In experiment [2], the DC50 came to 3.1 µM and the “LNCaP AR (L702H) Degradation Dmax” value turned out to be 100%.

In experiment [1], `Cc1ccc(C2CCCN(c3ccc(N4CCC(CN5CCN(c6ccc7c(c6)CN(C6CCC(=O)NC6=O)C7=O)CC5)CC4)cc3)C2)c2[nH]cc(C#N)c12` (single isomer, unassigned) [Example 82, 7-[(3R*)-1-{4-[4-({4-[2-(2,6-dioxopiperidin-3-yl)-1-oxo-2,3-dihydro-1H-isoindol-5-yl]piperazin-1-yl}methyl)piperidin-1-yl]phenyl}piperidin-3-yl]-4-methyl-1H-indole-3-carbonitrile] displayed a DC50 of 0.031 µM and a Dmax of 90%. In experiment [2], this compound displayed a DC50 of 0.022 µM and a Dmax of 91%.

On to `Cc1ccc(C2CCCN(c3ccc(N4CCC(CN5CCN(c6ccc7c(c6)CN(C6CCC(=O)NC6=O)C7=O)CC5)CC4)cc3)C2)c2[nH]cc(C#N)c12` (single isomer, unassigned) [Example 83, 7-[(3S*)-1-{4-[4-({4-[2-(2,6-dioxopiperidin-3-yl)-1-oxo-2,3-dihydro-1H-isoindol-5-yl]piperazin-1-yl}methyl)piperidin-1-yl]phenyl}piperidin-3-yl]-4-methyl-1H-indole-3-carbonitrile], for which, in experiment [1], the DC50 is 3.1 µM and the “LNCaP AR Degradation Dmax” value worked out at 100%. This compound gave a DC50 in experiment [2] above 3 µM.

For `COc1nc(N2CCN(CC3CCN(c4ccc(N5CCCC(c6ccc(Cl)c7c(C#N)c[nH]c67)C5)cc4)CC3)CC2)cc2c1C(=O)N(C1CCC(=O)NC1=O)C2` (single isomer, unassigned) [Example 91, 4-Chloro-7-[(3R*)-1-{4-[4-({4-[2-(2,6-dioxopiperidin-3-yl)-4-methoxy-3-oxo-2,3-dihydro-1H-pyrrolo[3,4-c]pyridin-6-yl]piperazin-1-yl}methyl)piperidin-1-yl]phenyl}piperidin-3-yl]-1H-indole-3-carbonitrile], the DC50 in experiment [1] worked out at 0.023 µM; in experiment [2] it was 0.01 µM. For the same compound, the Dmax in experiment [1] stood at 100%; in experiment [2], 99%.
